One test has as its system A. baumannii ATCC 19606. Description: microbe, parasite or virus in culture. As to conditions: Acinetobacter baumannii.
Test [1] has as its system E. coli ATCC 25922. As to the kind of experiment: microbe, parasite or virus in culture. As to conditions: Escherichia coli.
In a further test the test system is MRSA ATCC 43300. Description: microbe, parasite or virus in culture. As to conditions: Staphylococcus aureus, ATCC43300|MRSA.
The test system of test [2] is E. coli ATCC 25922. The test is classed as cell-based. An excerpt:
Antibacterial activity testing (in solid media).

This note sets out measurements from patent EP3117830A1, “ANTIBACTERIAL PEPTIDES, AND USES THEREOF” (Nuritas Limited, priority 2015, dated 2017).

Where two headings read alike, the source gives them in different places. No end group written: not given here.

Take `O=C(O)c1cn(C2CC2)c2cc(N3CCNCC3)c(F)cc2c1=O` [CIP, Ciprofloxacin]: the zone of inhibition at 64 µg/mL in the test on A. baumannii ATCC 19606 (ATCC19606, read-out: Inhibition zone diameter (mm) A. baumannii ATCC 19606 Rep 1) stood at 27 mm; in the test on A. baumannii ATCC 19606 (ATCC19606, read-out: Inhibition zone diameter (mm) A. baumannii ATCC 19606 Rep 2) it was 28 mm; in the test on A. baumannii ATCC 19606 (ATCC19606, read-out: Inhibition zone diameter (mm) A. baumannii ATCC 19606 Rep 3) it was 27 mm; in the test with E. coli ATCC 25922 [1] (ATCC25922, read-out: Inhibition zone diameter (mm) E. coli ATCC 25922 Rep 1) it was 42 mm; with E. coli ATCC 25922 [1] (ATCC25922, read-out: Inhibition zone diameter (mm) E. coli ATCC 25922 Rep 2), 40 mm; in the test on E. coli ATCC 25922 [1] (ATCC25922, read-out: Inhibition zone diameter (mm) E. coli ATCC 25922 Rep 3), 42 mm. For the same molecule, the zone of inhibition at 64 µg/mL is 27 mm in the test with MRSA ATCC 43300 (read-out: Inhibition zone diameter (mm) MRSA ATCC 43300 Rep 1), 28 mm in the test on MRSA ATCC 43300 (read-out: Inhibition zone diameter (mm) MRSA ATCC 43300 Rep 2) and 29 mm in the test on MRSA ATCC 43300 (read-out: Inhibition zone diameter (mm) MRSA ATCC 43300 Rep 3).

With LNSQKFPILNLVQLSATR [I_87_SF], in the test on E. coli ATCC 25922 [2], the inhibition zone is 9-10 mm.
